Patent publication US8946431B2, “2-(substituted ethynyl)quinoline derivatives as mGLUr5 antagonists” (Korea Institute of Science and Technology, priority 2013, dated 2015)

How the values were obtained:
mGluR5 [1] = target: T1, mGluR5 (Homo sapiens, UniProt P41594); assay: Assay for m-GluR5 activity using FDSS6000 (calcium mobilization by L-glutamate in mGluR5/HEK293 cells); assay type: cell-based; settings: L-glutamate 10 uM, HEK cells expressing m-GluR5; for inhibition at 1 µM / inhibition at 10 µM: HEK293, read-out: % Inhibition rate (mGluR5)
T1 construct: host or cells: HEK293 (human embryonic kidney) cells stably expressing m-GluR5
T1 sequence (P41594 21-1212): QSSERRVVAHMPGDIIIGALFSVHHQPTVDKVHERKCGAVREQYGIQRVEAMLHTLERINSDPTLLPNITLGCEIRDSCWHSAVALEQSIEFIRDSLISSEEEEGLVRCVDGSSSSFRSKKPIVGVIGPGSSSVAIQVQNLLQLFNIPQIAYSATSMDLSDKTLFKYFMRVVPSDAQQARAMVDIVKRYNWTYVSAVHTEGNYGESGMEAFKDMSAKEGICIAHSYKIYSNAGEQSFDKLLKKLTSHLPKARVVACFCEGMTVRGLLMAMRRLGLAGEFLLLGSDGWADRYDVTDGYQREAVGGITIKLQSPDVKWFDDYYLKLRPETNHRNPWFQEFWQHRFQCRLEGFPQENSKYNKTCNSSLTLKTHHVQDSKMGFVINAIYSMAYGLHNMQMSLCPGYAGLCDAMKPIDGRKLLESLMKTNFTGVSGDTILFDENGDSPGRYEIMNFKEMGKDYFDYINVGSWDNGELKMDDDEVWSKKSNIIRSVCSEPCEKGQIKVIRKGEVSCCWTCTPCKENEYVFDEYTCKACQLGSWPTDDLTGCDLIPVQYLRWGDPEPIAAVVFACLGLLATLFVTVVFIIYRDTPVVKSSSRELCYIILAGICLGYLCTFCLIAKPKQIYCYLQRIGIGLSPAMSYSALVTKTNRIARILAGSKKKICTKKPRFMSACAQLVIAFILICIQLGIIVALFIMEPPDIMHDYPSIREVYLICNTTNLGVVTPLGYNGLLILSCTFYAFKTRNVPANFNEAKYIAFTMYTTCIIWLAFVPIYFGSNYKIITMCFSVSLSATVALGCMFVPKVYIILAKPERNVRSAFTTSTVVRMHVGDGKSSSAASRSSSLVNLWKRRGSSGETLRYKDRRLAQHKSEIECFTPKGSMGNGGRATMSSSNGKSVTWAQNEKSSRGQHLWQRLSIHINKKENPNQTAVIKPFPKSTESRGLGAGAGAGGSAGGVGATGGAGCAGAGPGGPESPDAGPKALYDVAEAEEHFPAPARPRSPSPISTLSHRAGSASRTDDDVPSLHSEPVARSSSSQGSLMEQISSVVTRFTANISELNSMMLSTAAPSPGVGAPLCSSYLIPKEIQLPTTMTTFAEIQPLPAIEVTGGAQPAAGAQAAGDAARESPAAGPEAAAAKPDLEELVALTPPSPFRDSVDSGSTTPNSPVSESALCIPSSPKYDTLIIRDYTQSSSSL
Protocol: Inhibitory activity (%) of the compound represented by Formula 1 on calcium mobilization developed at a high concentration of glutamate in mGluR5/HEK293 cells was measured by using a high throughput FDSS6000.
After HEK cells stably expressing m-GluR5 (Human embryonic kidney cell line; m-GluR5: Yonsei University) were prepared at a density of 4×10^4/Ml per well, aliquots of 100 μl from the cell suspension were distributed evenly into a 96-well plate and incubated for 18 hr at 37° C., 5% CO2. The well plate was washed with a HBSS buffer to remove the culture medium, and reacted with a HBSS buffer containing a Ca^2+ fluorescent dye (FLIPR Calcium 5 assay kit: Molecular Devices) for 30 min at 37° C., 5% CO2, thereby labeling with the fluorescent dye. Separately from the 96-well plate including the cells, another 96-well plate including L-glutamate (final concentration: 10 uM) capable of activating m-GluR5 and a blacking agent was prepared. Since most of cell-based HTS devices are equipped with a liquid application system for injection of a drug, but have no liquid sucking system, the blocking agent to be tested and L-glutamate were respectively provided at a 6-fold higher concentration in a HBSS buffer at the amount of 25 μl, diluted by six-times at the final cell plate volume of 150 μl, and then used in this assay. Briefly, the FDSS6000 assay was carried out by recording a reference level of 20 sec, pre-treating with a blocking agent for 75 sec, and then measuring the change in intracellular calcium level depending on the administration of L-glutamate. After the area of a 480/520 ratio value in a control without treatment of a test drug was set to 100%, an inhibitory effect of the test drug was calculated as a percentage (%) thereon.
For accurate calcium imaging, the light source of 4 xenon lamps in FDSS6000 were radiated to selectively expose the cells to the excitation wavelength (480 nm) by a computer-controlled filter wheel. Data were obtained at intervals of 1.23 sec. The emitter fluorescence light inflowed through a 520 nm long-pass filter was obtained as an average 480/520 ratio value for each well in the 96-wells by using a CCD camera and a digital fluorescence analyzer in FDSS6000. All image data and analyses were obtained by using a FDSS6000-exclusive program from Hamamatsu Photonics.

mGluR5 [2] = target: T1, mGluR5; assay: Inhibitory concentration (IC50) on mGluR5; assay type: cell-based
hERG = hERG (Homo sapiens, UniProt Q12809); assay: Inhibitory concentration (IC50) on hERG
Chain of hERG (Q12809 whole entry): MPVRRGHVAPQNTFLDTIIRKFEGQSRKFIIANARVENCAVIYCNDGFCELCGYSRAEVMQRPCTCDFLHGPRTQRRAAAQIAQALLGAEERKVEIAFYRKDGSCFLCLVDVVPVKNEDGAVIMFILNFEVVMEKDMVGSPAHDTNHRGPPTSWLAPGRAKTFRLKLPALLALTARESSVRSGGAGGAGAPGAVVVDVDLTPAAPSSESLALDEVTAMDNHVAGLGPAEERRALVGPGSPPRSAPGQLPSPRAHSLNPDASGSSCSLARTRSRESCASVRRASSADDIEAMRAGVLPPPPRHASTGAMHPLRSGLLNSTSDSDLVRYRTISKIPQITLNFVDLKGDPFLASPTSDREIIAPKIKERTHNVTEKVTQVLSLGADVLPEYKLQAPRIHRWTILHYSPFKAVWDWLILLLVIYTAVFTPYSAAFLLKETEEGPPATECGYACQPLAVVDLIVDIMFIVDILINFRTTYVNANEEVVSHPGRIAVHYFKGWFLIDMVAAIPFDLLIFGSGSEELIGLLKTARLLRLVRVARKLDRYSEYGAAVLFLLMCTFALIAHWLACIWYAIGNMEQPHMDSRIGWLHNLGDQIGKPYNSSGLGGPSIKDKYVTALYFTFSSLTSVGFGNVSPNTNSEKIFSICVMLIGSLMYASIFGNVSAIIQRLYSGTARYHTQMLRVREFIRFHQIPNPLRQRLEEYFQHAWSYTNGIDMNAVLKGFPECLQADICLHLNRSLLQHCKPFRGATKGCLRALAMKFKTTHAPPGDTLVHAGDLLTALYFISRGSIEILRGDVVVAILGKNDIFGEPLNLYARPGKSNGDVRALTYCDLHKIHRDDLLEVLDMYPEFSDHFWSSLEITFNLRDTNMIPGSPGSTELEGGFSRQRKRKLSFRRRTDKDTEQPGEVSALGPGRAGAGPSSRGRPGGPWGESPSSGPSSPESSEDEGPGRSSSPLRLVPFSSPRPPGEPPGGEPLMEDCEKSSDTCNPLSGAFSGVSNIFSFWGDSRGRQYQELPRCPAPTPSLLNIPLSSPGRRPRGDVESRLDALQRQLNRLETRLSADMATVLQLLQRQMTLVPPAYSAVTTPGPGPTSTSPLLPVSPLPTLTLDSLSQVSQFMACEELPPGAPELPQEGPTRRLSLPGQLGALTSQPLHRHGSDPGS

[3] = HLM (human liver microsomal) stability; assay type: in vitro ADME; settings: human liver microsomes
CYP2D6 = CYP2D6 (Homo sapiens, UniProt P10635); assay: CYP inhibitory rate, CYP2D6; assay type: in vitro ADME
Chain of CYP2D6 (P10635 whole entry): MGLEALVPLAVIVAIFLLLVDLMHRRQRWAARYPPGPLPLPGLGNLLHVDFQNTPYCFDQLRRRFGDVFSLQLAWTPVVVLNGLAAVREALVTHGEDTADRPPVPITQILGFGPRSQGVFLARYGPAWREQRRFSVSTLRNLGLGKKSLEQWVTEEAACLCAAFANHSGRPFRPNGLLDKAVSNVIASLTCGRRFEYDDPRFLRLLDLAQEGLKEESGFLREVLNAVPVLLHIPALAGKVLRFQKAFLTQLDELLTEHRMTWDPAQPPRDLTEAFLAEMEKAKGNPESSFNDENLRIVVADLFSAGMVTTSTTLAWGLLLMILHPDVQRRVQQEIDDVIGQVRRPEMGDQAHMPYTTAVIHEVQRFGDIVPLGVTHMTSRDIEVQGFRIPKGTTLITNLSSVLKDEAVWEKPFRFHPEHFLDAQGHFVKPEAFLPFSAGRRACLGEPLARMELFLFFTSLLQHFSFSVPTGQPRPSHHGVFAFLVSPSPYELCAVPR

CYP2C9 = CYP2C9 (Homo sapiens, UniProt P11712); assay: CYP inhibitory rate, CYP2C9; assay type: in vitro ADME
Chain of CYP2C9 (P11712 whole entry): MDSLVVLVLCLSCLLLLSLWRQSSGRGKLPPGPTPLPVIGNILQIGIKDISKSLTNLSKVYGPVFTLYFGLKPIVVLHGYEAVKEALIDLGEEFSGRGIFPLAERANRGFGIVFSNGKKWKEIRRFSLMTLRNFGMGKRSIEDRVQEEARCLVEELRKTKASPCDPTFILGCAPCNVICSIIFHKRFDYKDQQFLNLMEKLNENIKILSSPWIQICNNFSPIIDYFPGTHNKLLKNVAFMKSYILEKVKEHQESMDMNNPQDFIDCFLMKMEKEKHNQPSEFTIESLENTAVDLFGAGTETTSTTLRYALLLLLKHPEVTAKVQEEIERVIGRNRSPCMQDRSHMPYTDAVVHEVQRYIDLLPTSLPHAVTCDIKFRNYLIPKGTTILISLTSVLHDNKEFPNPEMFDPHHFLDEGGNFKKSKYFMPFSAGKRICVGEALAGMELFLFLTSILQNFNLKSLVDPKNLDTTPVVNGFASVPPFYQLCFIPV

CYP3A4 = CYP3A4 (Homo sapiens, UniProt P08684); assay: CYP inhibitory rate, CYP3A4; assay type: in vitro ADME
Chain of CYP3A4 (P08684 whole entry): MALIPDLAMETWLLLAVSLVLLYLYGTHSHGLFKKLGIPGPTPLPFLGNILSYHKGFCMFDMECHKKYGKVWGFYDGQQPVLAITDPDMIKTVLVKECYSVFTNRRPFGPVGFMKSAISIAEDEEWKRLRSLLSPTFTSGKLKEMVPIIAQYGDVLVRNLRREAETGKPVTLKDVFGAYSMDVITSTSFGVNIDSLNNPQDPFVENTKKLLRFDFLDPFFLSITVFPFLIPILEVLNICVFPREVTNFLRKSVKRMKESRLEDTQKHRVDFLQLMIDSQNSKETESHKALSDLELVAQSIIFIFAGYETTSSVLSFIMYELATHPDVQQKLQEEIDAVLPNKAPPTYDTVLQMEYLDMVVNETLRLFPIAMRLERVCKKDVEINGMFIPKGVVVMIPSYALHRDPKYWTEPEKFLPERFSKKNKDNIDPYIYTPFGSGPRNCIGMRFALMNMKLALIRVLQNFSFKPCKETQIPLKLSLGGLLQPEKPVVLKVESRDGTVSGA

Row | Compound | inhibition at 1 µM (mGluR5 [1]; 1 μM compound) | inhibition at 10 µM (mGluR5 [1]; 10 μM compound) | further results
1 | Brc1cccc2nc(C#Cc3ccccn3)ccc12 [Example 29, 5-Bromo-2-(pyridine-2-ylethynyl)quinoline] | 56.7% | 77.5% | 
2 | Oc1cccc2nc(C#Cc3cccnc3)ccc12 [Example 23, 2-(Pyridine-3-ylethynyl)quinoline-5-ol] | 25.2% | 17.6% | 
3 | C(#Cc1ccc2ccccc2n1)c1cccnc1 [Example 19, 2-(Pyridine-3-ylethynyl)quinoline] | 43.9% | 65.8% | 
4 | Cc1ccnc(C#Cc2ccc3ccccc3n2)c1 [Example 34, 2-((4-Methylpyridine-2-yl)ethynyl)quinoline] | 21.9% | 66.5% | 
5 | Clc1cccc2nc(C#Cc3ccccc3)ccc12 [Example 17, 5-Chloro-2-(phenylethynyl)quinoline] | 11.7% | 8.02% | 
6 | Cc1cccnc1C#Cc1ccc2ccccc2n1 [Example 31, 2-((3-Methylpyridine-2-yl)ethynyl)quinoline] | 18.9% | 40.1% | 
7 | N#Cc1ccnc(C#Cc2ccc3ccccc3n2)c1 [Example 33, 2-(Quinoline-2-ylethynyl)isonicotinonitrile] | 35.2% | 76.1% | 
8 | CC(C)(C)C(=O)Oc1cccc2nc(C#Cc3ccccn3)ccc12 [Example 27, 2-(Pyridine-2-ylethynyl)quinoline-5-ylpivalate] |  |  | % Inhibition rate (mGluR5) (mGluR5 [1]; 1 μM compound): 17.12%; % Inhibition rate (mGluR5) (mGluR5 [1]; 10 μM compound): 62.44%
9 | FC(F)(F)c1ccnc(C#Cc2ccc3ccccc3n2)c1 [Example 32, 2-((4-(Trifluoromethyl)pyridine-2-yl)ethynyl)quinoline] | 23.3% | 58% | 
10 | C(#Cc1ccc2ccccc2n1)c1ccccc1 [Example 11, 2-(Phenylethynyl)quinoline] | 35.9% | 67.7% | 
11 | FC(F)(F)c1cccnc1C#Cc1ccc2ccccc2n1 [Example 13, 2-((3-(Trifluoromethyl)pyridine-2-yl)ethynyl)quinoline] | 9.49% | 16.4% | 
12 | Brc1cccc2nc(C#Cc3ccccc3)ccc12 [Example 18, 5-Bromo-2-(phenylethynyl)quinoline] | 21.1% | 20.7% | 
13 | COc1cccc2nc(C#Cc3ccccc3)ccc12 [Example 14, 5-Methoxy-2-(phenylethynyl)quinoline] | 63.6% | 68% | HLM % remaining after 30 min [3]: <1%; CYP (% remaining @ 10 μM) CYP2D6 (CYP2D6): >99%; CYP (% remaining @ 10 μM) CYP2C9 (CYP2C9): 55%; CYP (% remaining @ 10 μM) CYP3A4 (CYP3A4): 50%
14 | Brc1cccc2nc(C#Cc3cccnc3)ccc12 [Example 25, 5-Bromo-2-(pyridine-3-ylethynyl)quinoline] | 22% | 40.1% | 
15 | CC(C)(C)C(=O)Oc1cccc2nc(C#Cc3ccccc3)ccc12 [Example 15, 2-(Phenylethynyl)quinoline-5-ylpivalate] |  |  | % Inhibition rate (mGluR5) (mGluR5 [1]; 1 μM compound): 24.03%; % Inhibition rate (mGluR5) (mGluR5 [1]; 10 μM compound): 23.77%
16 | Oc1cccc2nc(C#Cc3ccccc3)ccc12 [Example 16, 2-(Phenylethynyl)quinoline-5-ol] | 18% | 24.3% | 
17 | Clc1cccc2nc(C#Cc3cccnc3)ccc12 [Example 24, 5-Chloro-2-(pyridine-3-ylethynyl)quinoline] | 11.2% | 28.4% | 
18 | COc1cccc2nc(C#Cc3cccnc3)ccc12 [Example 20, 5-Methoxy-2-(pyridine-3-ylethynyl)quinoline] | 67.7% | 67.7% | 
19 | CC(C)(C)C(=O)Oc1cccc2nc(C#Cc3cccnc3)ccc12 [Example 22, 2-(Pyridine-3-ylethynyl)quinoline-5-ylpivalate] |  |  | % Inhibition rate (mGluR5) (mGluR5 [1]; 1 μM compound): 10.56%; % Inhibition rate (mGluR5) (mGluR5 [1]; 10 μM compound): 28.5%
20 | CCOc1cccc2nc(C#Cc3cccnc3)ccc12 [Example 21, 5-Ethoxy-2-(pyridine-3-ylethynyl)quinoline] | 47.2% | 66.6% | 
21 | Fc1cccnc1C#Cc1ccc2ccccc2n1 [Example 30, 2-((3-Fluoropyridine-2-yl)ethynyl)quinoline] | 31.3% | 55.2% | 
22 | FC(F)(F)c1ccc(C#Cc2ccc3ccccc3n2)nc1 [Example 35, 2-((5-(Trifluoromethyl)pyridine-2-yl)ethynyl)quinoline] | 13% | 50.7% | 
23 | Clc1cccc2nc(C#Cc3ccccn3)ccc12 [Example 12, 5-Chloro-2-(pyridine-2-ylethynyl)quinoline] | 31% | 64.3% | 
24 | Oc1cccc2nc(C#Cc3ccccn3)ccc12 [Example 28, 2-(Pyridine-2-ylethynyl)quinoline-5-ol] | 17.4% | 22.1% | 

Now from value to compound, other results behind:

Row | inhibition at 1 µM (mGluR5 [1]; 1 μM compound) | inhibition at 10 µM (mGluR5 [1]; 10 μM compound) | Compound | further results
25 | 33% | 64.8% | N#Cc1cccc(C#Cc2ccc3ccccc3n2)n1 [Example 39, 6-(Quinoline-2-ylethynyl)picolinonitrile] | IC50 (mGluR5 [2]): 0.75 ± 0.17 µM; IC50 (hERG): 22.7 ± 7.04 µM; HLM % remaining after 30 min [3]: 98%; CYP (% remaining @ 10 μM) CYP2D6 (CYP2D6): 78%; CYP (% remaining @ 10 μM) CYP2C9 (CYP2C9): 52%; CYP (% remaining @ 10 μM) CYP3A4 (CYP3A4): 56%
26 | 29% | 66.3% | Cc1ccc(C#Cc2ccc3ccccc3n2)nc1 [Example 37, 2-((5-Methylpyridine-2-yl)ethynyl)quinoline] | 
27 | 16.6% | 48.6% | COc1cccc(C#Cc2ccc3ccccc3n2)n1 [Example 41, 2-((6-Methoxypyridine-2-yl)ethynyl)quinoline] | 
28 | 13.6% | 22.4% | C(#Cc1ccc2ccccc2n1)c1cncnc1 [Example 45, 2-(Pyrimidine-5-ylethynyl)quinoline] | 
29 | 16% | 15.6% | Fc1cnc(C#Cc2ccc3ccccc3n2)nc1 [Example 44, 2-((5-Fluoropyrimidine-2-yl)ethynyl)quinoline] | 
30 | 29.6% | 46.9% | Fc1cccc(C#Cc2ccc3ccccc3n2)n1 [Example 40, 2-((6-Fluoropyridine-2-yl)ethynyl)quinoline] | 
31 | 17.3% | 15.9% | FC(F)(F)c1ccnc(C#Cc2ccc3ccccc3n2)n1 [Example 43, 2-((4-(Trifluoromethyl)pyrimidine-2-yl)ethynyl)quinoline] | 
32 | 17.1% | 28.6% | C(#Cc1ncccn1)c1ccc2ccccc2n1 [Example 42, 2-(Pyrimidine-2-ylethynyl)quinoline] | 
33 | 33.9% | 63.3% | Fc1ccc(C#Cc2ccc3ccccc3n2)nc1 [Example 36, 2-((5-Fluoropyridine-2-yl)ethynyl)quinoline] | 
34 | 15.8% | 28.7% | FC(F)(F)c1cccc(C#Cc2ccc3ccccc3n2)n1 [Example 38, 2-((6-(Trifluoromethyl)pyridine-2-yl)ethynyl)quinoline] | 
